Key:
[1] = biological target: T1, Bone morphogenetic protein receptor type-2 (Homo sapiens) (UniProt Q13873); test: Selectivity interaction (Kinase panel (DSF assay)) EUB0001559a BMPR2
T1 sequence (whole entry): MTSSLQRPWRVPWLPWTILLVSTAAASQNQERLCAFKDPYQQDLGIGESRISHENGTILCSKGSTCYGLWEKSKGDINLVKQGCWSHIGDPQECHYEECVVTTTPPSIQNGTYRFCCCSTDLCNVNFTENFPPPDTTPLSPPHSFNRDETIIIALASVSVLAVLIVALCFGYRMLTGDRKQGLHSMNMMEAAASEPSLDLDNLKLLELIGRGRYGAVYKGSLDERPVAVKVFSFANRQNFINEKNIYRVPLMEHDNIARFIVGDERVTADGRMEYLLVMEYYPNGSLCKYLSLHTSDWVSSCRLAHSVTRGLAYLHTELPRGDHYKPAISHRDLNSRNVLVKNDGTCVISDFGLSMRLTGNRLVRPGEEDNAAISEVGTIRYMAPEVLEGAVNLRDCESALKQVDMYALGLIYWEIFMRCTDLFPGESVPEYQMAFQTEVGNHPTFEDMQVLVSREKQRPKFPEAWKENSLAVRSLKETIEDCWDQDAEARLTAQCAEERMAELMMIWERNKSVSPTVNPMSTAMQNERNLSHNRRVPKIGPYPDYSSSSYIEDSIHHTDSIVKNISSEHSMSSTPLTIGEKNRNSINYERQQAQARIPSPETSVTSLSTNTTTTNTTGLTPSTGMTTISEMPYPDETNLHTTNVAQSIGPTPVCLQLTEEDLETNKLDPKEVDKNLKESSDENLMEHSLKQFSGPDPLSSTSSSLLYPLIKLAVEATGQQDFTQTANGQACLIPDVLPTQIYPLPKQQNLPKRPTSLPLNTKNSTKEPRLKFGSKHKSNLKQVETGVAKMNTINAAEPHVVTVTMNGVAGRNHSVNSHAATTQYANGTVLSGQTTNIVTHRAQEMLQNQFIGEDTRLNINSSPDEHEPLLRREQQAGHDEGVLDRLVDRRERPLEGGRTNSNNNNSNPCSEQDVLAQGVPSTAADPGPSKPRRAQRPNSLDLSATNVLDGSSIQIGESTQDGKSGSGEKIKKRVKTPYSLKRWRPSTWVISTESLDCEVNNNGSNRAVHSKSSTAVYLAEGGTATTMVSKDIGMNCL

[2] = biological target: T2, Prostaglandin G/H synthase 2 (Homo sapiens) (UniProt P35354); test: Selectivity interaction (Panel of kinases, GPCRs, ion channels and transporters (enzymatic assay)) EUB0000223bCl PTGS2
T2 sequence (whole entry): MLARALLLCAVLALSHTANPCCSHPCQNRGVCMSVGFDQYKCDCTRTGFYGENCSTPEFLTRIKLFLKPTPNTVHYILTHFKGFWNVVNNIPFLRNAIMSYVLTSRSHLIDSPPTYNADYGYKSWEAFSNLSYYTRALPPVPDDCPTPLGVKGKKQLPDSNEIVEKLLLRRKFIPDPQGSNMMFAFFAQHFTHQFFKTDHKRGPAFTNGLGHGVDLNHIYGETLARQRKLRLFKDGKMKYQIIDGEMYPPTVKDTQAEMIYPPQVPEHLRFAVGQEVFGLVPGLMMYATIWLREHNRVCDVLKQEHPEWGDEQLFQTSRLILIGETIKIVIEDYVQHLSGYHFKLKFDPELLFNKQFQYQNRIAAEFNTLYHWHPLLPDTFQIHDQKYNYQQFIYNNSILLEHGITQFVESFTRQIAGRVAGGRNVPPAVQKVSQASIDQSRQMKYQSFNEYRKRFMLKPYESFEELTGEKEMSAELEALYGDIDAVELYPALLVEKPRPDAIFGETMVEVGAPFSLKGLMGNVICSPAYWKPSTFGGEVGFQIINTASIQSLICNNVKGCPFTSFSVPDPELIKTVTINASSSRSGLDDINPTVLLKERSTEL

[3] = biological target: T3, Serine/threonine-protein kinase Nek9 (Homo sapiens) (UniProt Q8TD19); test: Selectivity interaction (ActivX KiNativ screen (ex vivo kinase selectivity in human PBMCs)) EUB0001619a NEK9; assay type: cell-based; settings: PBMC, at 1 µM
T3 sequence (whole entry): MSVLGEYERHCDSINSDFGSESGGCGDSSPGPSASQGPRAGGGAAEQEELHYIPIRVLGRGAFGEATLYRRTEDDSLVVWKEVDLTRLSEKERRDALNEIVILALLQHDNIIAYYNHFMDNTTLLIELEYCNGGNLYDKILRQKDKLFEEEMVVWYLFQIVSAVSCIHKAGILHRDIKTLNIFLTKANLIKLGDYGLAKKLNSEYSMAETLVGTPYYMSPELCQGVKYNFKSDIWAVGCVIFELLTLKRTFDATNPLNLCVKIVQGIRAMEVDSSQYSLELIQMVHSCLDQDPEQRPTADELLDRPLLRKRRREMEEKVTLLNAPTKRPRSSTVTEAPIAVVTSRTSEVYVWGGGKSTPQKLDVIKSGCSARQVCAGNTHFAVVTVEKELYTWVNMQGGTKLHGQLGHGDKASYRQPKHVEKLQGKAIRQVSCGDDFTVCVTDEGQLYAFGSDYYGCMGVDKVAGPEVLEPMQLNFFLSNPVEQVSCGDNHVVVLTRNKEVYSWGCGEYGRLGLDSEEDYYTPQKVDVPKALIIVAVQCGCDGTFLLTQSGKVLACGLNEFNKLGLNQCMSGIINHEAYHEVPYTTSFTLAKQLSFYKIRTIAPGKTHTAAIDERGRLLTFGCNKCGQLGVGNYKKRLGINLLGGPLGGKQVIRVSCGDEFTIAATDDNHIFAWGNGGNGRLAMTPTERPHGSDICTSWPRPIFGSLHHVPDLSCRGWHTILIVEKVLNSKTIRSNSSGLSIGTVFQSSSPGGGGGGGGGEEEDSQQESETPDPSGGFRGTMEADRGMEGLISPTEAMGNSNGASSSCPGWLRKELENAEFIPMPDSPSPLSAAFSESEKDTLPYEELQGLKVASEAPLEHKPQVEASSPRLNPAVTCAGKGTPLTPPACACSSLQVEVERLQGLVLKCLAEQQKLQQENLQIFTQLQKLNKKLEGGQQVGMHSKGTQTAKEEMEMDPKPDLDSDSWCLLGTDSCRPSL

**Q.** How did the dTM [1] turn out when CN(C(=O)c1cnn2cccnc12)c1cc2c(cc1N1CCOCC1)C(=O)N(C[C@@H](F)C(C)(C)O)C2 was run?
**A.** -0.3 K

**Q.** How did the pXC50 [2] turn out when COc1cc(C(=O)N2CC[C@@H](O)[C@@H](N)C2)cc2nc(-c3cc4ccccc4n3CC3CC3)n(C)c12 was run?
**A.** < 4 M

**Q.** With N#Cc1cccc(-c2c[nH]c3ncnc(N4CCOCC4)c23)c1 as the compound, how does the % of inhibition [3] read?
**A.** -16%

From ChEMBL document CHEMBL5465560, “Selectivity Literature for EUbOPEN Chemogenomic Library” (2024)
